Data taken from the supplement of paper PMC10307832.

Key:
Test in all cases: relative viability (nuclei count vs DMSO), 5 days (fraction); higher = more cells survive
[1] = compound: CC(C)(C)c1cc(NC(=O)Nc2ccc(-c3cn4c(n3)sc3cc(OCCN5CCOCC5)ccc34)cc2)no1 [Quizartinib] + O=C(CCCCCCC(=O)Nc1ccccc1)NO [Vorinostat] (partner 1 µM)
In short: (§1)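 Relative viability equals treated-well nuclei counts divided by vehicle-well nuclei counts. Counts came from 4× images of lung cancer cell lines grown in 1536-well plates for 5 days after pin-tool dosing on the day after seeding. Dosing used one drug alone or a fixed anchor-drug dose plus five library-drug doses (not always all listed) in √10 steps, and values are medians of duplicate plates.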

[2] = compound: CC(C)(C)c1cc(NC(=O)Nc2ccc(-c3cn4c(n3)sc3cc(OCCN5CCOCC5)ccc34)cc2)no1 [Quizartinib] + Nc1ncn([C@H]2C[C@H](O)[C@@H](CO)O2)c(=O)n1 [Decitabine] (partner 2 µM)
In short: as §1

[3] = compound: COCC[n+]1c2c(n(Cc3cnccn3)c1C)C(=O)c1ccccc1C2=O [YM155] + Cc1nc(NC(=O)N2CCC[C@H]2C(N)=O)sc1-c1ccnc(C(C)(C)C(F)(F)F)c1 [Alpelisib] (partner 2 µM)
In short: as §1

[4] = compound: COCC[n+]1c2c(n(Cc3cnccn3)c1C)C(=O)c1ccccc1C2=O [YM155] + CS(=O)(=O)CCNCc1ccc(-c2ccc3ncnc(Nc4ccc(OCc5cccc(F)c5)c(Cl)c4)c3c2)o1 [Lapatinib] (partner 2 µM)
In short: as §1

| Cell Line | relative viability ([1]; first compound 0.001 µM) | relative viability ([1]; first compound 0.003162 µM) | relative viability ([1]; first compound 0.01 µM) | relative viability ([1]; first compound 0.03162 µM) | relative viability ([1]; first compound 0.1 µM) | relative viability ([2]; first compound 0.001 µM) | relative viability ([2]; first compound 0.003162 µM) | relative viability ([2]; first compound 0.01 µM) | relative viability ([2]; first compound 0.03162 µM) | relative viability ([2]; first compound 0.1 µM) | relative viability ([3]; first compound 0.002 µM) | relative viability ([3]; first compound 0.006325 µM) | relative viability ([3]; first compound 0.02 µM) | relative viability ([3]; first compound 0.06325 µM) | relative viability ([4]; first compound 0.002 µM) | relative viability ([4]; first compound 0.006325 µM) | relative viability ([4]; first compound 0.02 µM) | relative viability ([4]; first compound 0.06325 µM) |
| --- | --- | --- | --- | --- | --- | --- | --- | --- | --- | --- | --- | --- | --- | --- | --- | --- | --- | --- |
| 201T | 1 | 0.982 | 0.963 | 0.965 | 0.992 | 0.812 | 0.799 | 0.882 | 0.847 | 0.87 | 1.01 | 1.03 | 1.05 | 1.02 | 1.02 | 0.992 | 0.956 | 0.96 |
| A549 | – | – | – | – | – | 0.193 | 0.249 | 0.161 | 0.27 | 0.25 | 0.673 | 0.759 | 0.838 | 0.35 | 0.93 | 0.872 | 0.598 | 0.0781 |
| A-427 | 0.609 | 0.757 | 0.818 | 0.767 | 0.874 | 0.517 | 0.529 | 0.582 | 0.515 | 0.566 | 1.08 | 1.06 | 1.09 | 1.12 | 1 | 0.994 | 1.07 | 0.987 |
| ABC-1 | – | 1.24 | 0.963 | 0.793 | 1.65 | – | 1 | 1.16 | 1.29 | 1.16 | 0.85 | 0.368 | 0.264 | 0.243 | 1.13 | – | 1.18 | 0.518 |
| BEN | 0.533 | 0.532 | 0.565 | 0.56 | 0.602 | 0.586 | 0.756 | 0.652 | 0.649 | 0.728 | 1.1 | 1.06 | 0.965 | 1.13 | 0.59 | 0.746 | 0.782 | 0.86 |
| CAL-12T | 0.684 | 0.711 | 0.914 | 0.511 | 0.943 | – | – | – | – | – | 1.02 | 1.29 | 0.921 | 0.25 | – | 0.768 | 0.61 | 0.588 |
| COR-L23 | 0.387 | 0.355 | 0.507 | 0.385 | 0.504 | 0.436 | 0.457 | 0.398 | 0.372 | 0.467 | 0.646 | 0.671 | 0.449 | 0.154 | 0.837 | 0.917 | 0.503 | 0.15 |
| COR-L 105 | 0.266 | 0.793 | 0.871 | – | 0.881 | 0.642 | 0.653 | 0.641 | – | 0.625 | 1.1 | 1.3 | 0.945 | 0.588 | 0.33 | 0.353 | 0.337 | 0.368 |
| Calu-6 | – | – | – | – | – | – | – | – | – | – | 0.937 | 0.578 | 0.309 | 0.252 | 1.04 | 0.992 | 0.271 | 0.143 |
| ChaGo-K-1 | – | 0.709 | 0.758 | 0.719 | 0.773 | – | 0.521 | 0.589 | 0.532 | 0.596 | – | – | – | – | – | – | – | – |
| EBC-1 | – | – | – | – | – | – | – | – | – | – | 0.786 | 0.862 | 0.95 | 0.9 | 0.229 | 0.203 | 0.208 | 0.196 |
| EKVX | – | 0.815 | 0.631 | 0.69 | 0.634 | – | 0.282 | 0.361 | 0.369 | 0.353 | 0.897 | 0.916 | 0.859 | 0.813 | 0.214 | 0.286 | 0.221 | 0.182 |
| EMC-BAC-2 | 0.433 | 0.486 | 0.288 | – | 0.544 | 0.812 | 0.975 | 1.04 | – | 0.996 | 0.735 | 0.723 | 0.729 | 0.719 | 0.795 | 0.899 | 0.874 | 0.817 |
| EPLC-272H | 0.427 | 0.337 | 0.484 | 0.58 | 0.692 | 0.301 | 0.417 | 0.375 | 0.376 | 0.382 | 0.917 | 0.937 | 0.915 | 1.02 | 1.05 | 0.854 | 0.941 | 0.949 |
| H3255 | – | 0.744 | 0.732 | 0.808 | 0.836 | – | 0.576 | 0.674 | 0.601 | 0.738 | 0.707 | 0.658 | 0.714 | 0.682 | 0.24 | 0.241 | 0.265 | 0.263 |
| HARA | 0.468 | 0.47 | 0.553 | 0.677 | 0.426 | 0.456 | 0.518 | 0.743 | 0.522 | 0.703 | 0.876 | 0.961 | 0.842 | 0.86 | 0.623 | 0.862 | 0.701 | 0.959 |
| HCC-15 | 0.747 | 0.799 | 0.882 | 0.823 | 0.832 | 0.57 | 0.651 | 0.612 | 0.521 | 0.615 | 0.96 | 0.826 | 0.927 | 0.879 | 0.802 | 0.911 | 0.868 | 0.69 |
| HCC-44 | 1.23 | 1.09 | 1.13 | 1.21 | 1.11 | 0.864 | 0.798 | 0.905 | 0.996 | 0.855 | 0.749 | 0.766 | 0.813 | 0.862 | 0.994 | 0.998 | 1.02 | 1.08 |
| HCC-78 | 0.453 | 0.44 | 0.445 | 0.419 | 0.445 | 0.651 | 0.624 | 0.619 | 0.631 | 0.751 | 0.341 | 0.436 | 0.361 | 0.438 | 0.672 | 0.806 | 0.968 | 0.833 |
| HCC-366 | 0.307 | 0.381 | 0.302 | 0.243 | 0.386 | 0.313 | 0.334 | 0.352 | 0.331 | 0.314 | 0.365 | 0.428 | 0.375 | 0.496 | 1.07 | 0.986 | 1.01 | 0.625 |
| HCC-827 | 0.797 | 0.881 | – | 0.724 | 0.886 | 0.291 | 0.358 | – | 0.313 | 0.334 | 0.982 | 1.04 | 1.06 | 0.993 | 0.169 | 0.198 | 0.177 | 0.191 |
